{"source": "patent EP3156049A1", "about": "“PHARMACEUTICAL COMPOSITION OF PRASUGREL” (Alembic Pharmaceuticals Limited, priority 2015, dated 2017)", "origin": "cited, not measured here", "note": "Where two headings read alike, the source gives them in different places.", "data": [{"smiles": "CC(=O)Oc1cc2c(s1)CCN(C(C(=O)C1CC1)c1ccccc1F)C2.Cl", "note": "(racemic) [Prasugrel hydrochloride, 5-[(1RS)-2-cyclopropyl-1-(2-fluorophenyl)-2-oxoethyl]-4,5,6,7-tetrahydrothieno [3,2-c] pyridin-2-yl acetate hydrochloride]", "values": [{"measurement": "Solubility", "setting": "pH 2", "result": "soluble"}, {"measurement": "Solubility", "setting": "pH 3 to 4", "result": "slightly soluble"}, {"measurement": "Solubility", "setting": "pH 6 to 7.5", "result": "practically insoluble"}]}]}
